The values that follow come from US6730293B1, “Compositions and methods for treating inflammatory diseases of the skin” (CellGate, Inc., priority 1999, dated 2004).

Data set [1] concerns Jurkat cells. Description: FACS cellular uptake assay of fluorescently labeled peptides and peptoids. Type of data set: cell-based, human. The following applies: for cellular uptake compared with Tat49-57: 23° C., 2% FCS; for additional loss of intracellular fluorescence from the one amino acid truncated analogs / loss of intracellular fluorescence compared to the parent sequence (Tat49-57): 15 min at 23° C. The procedure:
Cellular Uptake Assay. […] The accuracy of this method for determining concentration was established by weighing selected samples and dissolving them in a known amount of PBS buffer. The concentrations determined by UV spectroscopy correlated with the amounts weighed out manually. Jurkat cells (human T cell line), murine B cells (CH27), or human PBL cells were grown in 10% fetal calf serum and DMEM and each of these were used for cellular uptake experiments. […] The microtiter plates were centrifuged and the cells were isolated, washed with cold PBS (3×250 μL), incubated with 0.05% trypsin/0.53 mM EDTA at 37° C. for 5 min, washed with cold PBS, and resuspended in PBS containing 0.1% propidium iodide. The cells were analyzed using fluorescent flow cytometry (FACScan, Becton Dickinson) and cells staining with propidium iodide were excluded from the analysis. The data presented is the mean fluorescent signal for the 5000 cells collected.
Inhibition of Cellular Uptake with Sodium Azide. The assays were performed as previously described with the exception that the cells used were preincubated for 30 min with 0.5% sodium azide in 2% FCS/PBS buffer prior to the addition of fluorescent peptides and the cells were washed with 0.5% sodium azide in PBS buffer. All of the cellular uptake assays were run in parallel in the presence and absence of sodium azide.
To determine the structural requirements for the cellular uptake of short arginine-rich peptides, a series of fluorescently-labeled truncated analogues of Tat49-57 were synthesized using standard solid-phase chemistry. See, e.g., Atherton, E.et al. SOLID-PHASE PEPTIDE […] (IRL: Oxford, Engl. 1989). A fluorescein moiety was attached via an aminohexanoic acid spacer on the amino termini. The ability of these fluorescently labeled peptides to enter Jurkat cells was then analyzed using fluorescent activated cell sorting (FACS) ( ). The peptide constructs tested were Tat49-57 (Fl-ahx-[…]): Tat49-56 (Fl-ahx-[…]), Tat49-55 (Fl-ahx-RKKRRQR), Tat50-57 (Fl-ahx-[…]), and […] (Fl-ahx-KRRQRRR). Differentiation between cell surface binding and internalization was accomplished throughout by running a parallel set of assays in the presence and absence of sodium azide. Because sodium azide inhibits energy-dependent cellular uptake but not cell surface binding, the difference in fluorescence between the two assays provided the amount of fluorescence resulting from internalization.

The subject of the next data set is skin of nude mice. Put plainly: Penetration of taxol-biotinylated D-arginine conjugates into skin of nude mice. The format is in vivo. The conditions noted are these: back of nude mice, 1 mM-100 μM in PBS, 30, 60, 120 minutes. The procedure: Slides were analyzed by fluorescent microscopy.
In data set [2] the test system is Jurkat cells. Description: Cellular uptake kinetics assay (Michaelis-Menton). The conditions noted are these: for Vmax: Jurkat cells, 30, 60, 120, 240 seconds; for rate of cell entry, fold faster than Tat47-59: from Km values; for Km values, fold greater than that found for Tat49-57: discussion. The format is cell-based, human. The procedure:
Cellular Uptake Kinetics Assay. […] The reactions were quenched by diluting the samples into 2% FCS/PBS (5 mL). The assays were then worked up and analyzed by fluorescent flow cytometry as previously described.

Peptide text beside a SMILES is read from it. * marks the point of attachment. FITC = O=C1OC2(c3ccc(O)cc3Oc3cc(O)ccc32)c2ccc(NC(=S)*)cc21; Ahx = NCCCCCC(=O)O

On to `N=C(N)NCCC[C@H](NC(=O)[C@H](CCCCN)NC(=O)[C@H](CCCCN)NC(=O)[C@H](CCCNC(=N)N)NC(=O)[C@H](CCCNC(=N)N)NC(=O)[C@H](CCC(N)=O)NC(=O)[C@H](CCCNC(=N)N)NC(=O)[C@H](CCCNC(=N)N)NC(=O)[C@H](CCCNC(=N)N)NC(=O)CCCCCNC(=S)Nc1ccc2c(c1)C(=O)OC21c2ccc(O)cc2Oc2cc(O)ccc21)C(N)=O` [Tat57-49], for which, in the data set with Jurkat cells [1], the “cellular uptake compared with Tat49-57” value is listed as “more effective at entering Jurkat cells then Tat49-57”.

With `CC(=O)O[C@H]1C(=O)[C@@]2(C)[C@H]([C@H](OC(=O)c3ccccc3)[C@]3(O)C[C@H](OC(=O)[C@H](OC(=O)NCCCC[C@H](NC(=O)[C@@H](CCCNC(=N)N)NC(=O)[C@@H](CCCNC(=N)N)NC(=O)[C@@H](CCCNC(=N)N)NC(=O)[C@@H](CCCNC(=N)N)NC(=O)[C@@H](CCCNC(=N)N)NC(=O)[C@@H](CCCNC(=N)N)NC(=O)[C@@H](CCCNC(=N)N)NC(=O)[C@@H](CCCNC(=N)N)NC(=O)[C@@H](CCCNC(=N)N)NC(=O)CCCCCNC(=O)CCCC[C@@H]4SC[C@@H]5NC(=O)N[C@@H]54)C(N)=O)[C@@H](NC(=O)c4ccccc4)c4ccccc4)C(C)=C1C3(C)C)[C@]1(OC(C)=O)CO[C@@H]1C[C@@H]2O` [B-aca-r9-K-taxol], the “penetration into skin (fluorescent streptavidin staining)” value in the data set on skin of nude mice was “effectively entered into and across the epidermis and into the dermis”.

Take `N=C(N)NCCC[C@H](NC(=O)[C@H](CCCNC(=N)N)NC(=O)[C@H](CCCNC(=N)N)NC(=O)[C@H](CCC(N)=O)NC(=O)[C@H](CCCNC(=N)N)NC(=O)[C@H](CCCNC(=N)N)NC(=O)[C@H](CCCCN)NC(=O)CCCCCNC(=S)Nc1ccc2c(c1)C(=O)OC21c2ccc(O)cc2Oc2cc(O)ccc21)C(N)=O` [Tat51-57, Fl-ahx-KRRQRRR] ({FITC-Ahx}-KRRQRRR-NH2): in the data set with Jurkat cells [1], the “additional loss of intracellular fluorescence from the one amino acid truncated analogs” value is recorded as “did not further diminish the amount of internalization”.

Consider `N=C(N)NCCC[C@H](NC(=O)[C@H](CCC(N)=O)NC(=O)[C@H](CCCNC(=N)N)NC(=O)[C@H](CCCNC(=N)N)NC(=O)[C@H](CCCCN)NC(=O)[C@H](CCCCN)NC(=O)[C@H](CCCNC(=N)N)NC(=O)CCCCCNC(=S)Nc1ccc2c(c1)C(=O)OC21c2ccc(O)cc2Oc2cc(O)ccc21)C(N)=O` [Tat49-55, Fl-ahx-RKKRRQR] ({FITC-Ahx}-RKKRRQR-NH2), for which the “additional loss of intracellular fluorescence from the one amino acid truncated analogs” value in the data set with Jurkat cells [1] was determined as 60%.

For the compound `N=C(N)NCCC[C@H](NC(=O)[C@H](CCCNC(=N)N)NC(=O)[C@H](CCC(N)=O)NC(=O)[C@H](CCCNC(=N)N)NC(=O)[C@H](CCCNC(=N)N)NC(=O)[C@H](CCCCN)NC(=O)[C@H](CCCCN)NC(=O)[C@H](CCCNC(=N)N)NC(=O)CCCCCNC(=S)Nc1ccc2c(c1)C(=O)OC21c2ccc(O)cc2Oc2cc(O)ccc21)C(N)=O` [Tat49-56] ({FITC-Ahx}-RKKRRQRR-NH2), the “loss of intracellular fluorescence compared to the parent sequence (Tat49-57)” value in the data set on Jurkat cells [1] was 80%.

In the case of `N=C(N)NCCC[C@@H](NC(=O)[C@@H](CCCCN)NC(=O)[C@@H](CCCCN)NC(=O)[C@@H](CCCNC(=N)N)NC(=O)[C@@H](CCCNC(=N)N)NC(=O)[C@@H](CCC(N)=O)NC(=O)[C@@H](CCCNC(=N)N)NC(=O)[C@@H](CCCNC(=N)N)NC(=O)[C@@H](CCCNC(=N)N)NC(=O)CCCCCNC(=S)Nc1ccc2c(c1)C(=O)OC21c2ccc(O)cc2Oc2cc(O)ccc21)C(N)=O` [d-Tat57-49, Fl-ahx-rrrqrrkkr], the “cellular uptake compared with Tat49-57” value in the data set on Jurkat cells [1] is on record as “more effective at entering Jurkat cells then Tat49-57”.

As for `CC[C@H](C)[C@H](NC(=O)[C@H](CCCCN)NC(=O)[C@@H](NC(=O)[C@H](CCC(N)=O)NC(=O)[C@H](CCCNC(=N)N)NC(=O)CCCCCNC(=S)Nc1ccc2c(c1)C(=O)OC21c2ccc(O)cc2Oc2cc(O)ccc21)[C@@H](C)CC)C(=O)N[C@@H](Cc1c[nH]c2ccccc12)C(=O)N[C@@H](Cc1ccccc1)C(=O)N[C@@H](CCC(N)=O)C(=O)N[C@@H](CC(N)=O)C(=O)N[C@@H](CCCNC(=N)N)C(=O)N[C@@H](CCCNC(=N)N)C(=O)N[C@@H](CCSC)C(=O)N[C@@H](CCCCN)C(=O)N[C@@H](Cc1c[nH]c2ccccc12)C(=O)N[C@@H](CCCCN)C(=O)N[C@@H](CCCCN)C(N)=O` [Antennapedia43-58, reference compound], in the data set on Jurkat cells [2], the Vmax was determined as 0.41 and the “rate of cell entry, fold faster than Tat47-59” value is listed as “approximately 2 fold”.

Turning to `C[C@H](NC(=O)[C@H](CCCNC(=N)N)NC(=O)[C@H](CCCNC(=N)N)NC(=O)[C@H](CCCCN)NC(=O)[C@H](CCCCN)NC(=O)[C@H](CCCNC(=N)N)NC(=O)CCCCCNC(=S)Nc1ccc2c(c1)C(=O)OC21c2ccc(O)cc2Oc2cc(O)ccc21)C(=O)N[C@@H](CCCNC(=N)N)C(=O)N[C@@H](CCCNC(=N)N)C(=O)N[C@@H](CCCNC(=N)N)C(N)=O` [A-54] ({FITC-Ahx}-RKKRRARRR-NH2), the “loss of cellular uptake on alanine substitution of Tat49-57” value in the data set on Jurkat cells [1] (12 min at 23° C.) was “modest decrease”.

In the case of `CC(=O)O[C@H]1C(=O)[C@@]2(C)[C@H]([C@H](OC(=O)c3ccccc3)[C@]3(O)C[C@H](OC(=O)[C@H](OC(=O)NCCCC[C@H](NC(=O)[C@@H](CCCNC(=N)N)NC(=O)[C@@H](CCCNC(=N)N)NC(=O)[C@@H](CCCNC(=N)N)NC(=O)[C@@H](CCCNC(=N)N)NC(=O)[C@@H](CCCNC(=N)N)NC(=O)[C@@H](CCCNC(=N)N)NC(=O)[C@@H](CCCNC(=N)N)NC(=O)CCCCCNC(=O)CCCC[C@@H]4SC[C@@H]5NC(=O)N[C@@H]54)C(N)=O)[C@@H](NC(=O)c4ccccc4)c4ccccc4)C(C)=C1C3(C)C)[C@]1(OC(C)=O)CO[C@@H]1C[C@@H]2O` [B-aca-r7-K-taxol], in the data set on skin of nude mice, the “penetration into skin (fluorescent streptavidin staining)” value is “effectively entered into and across the epidermis and into the dermis”.

In the case of `N=C(N)NCCC[C@@H](NC(=O)[C@@H](CCCNC(=N)N)NC(=O)[C@@H](CCCNC(=N)N)NC(=O)[C@@H](CCCNC(=N)N)NC(=O)[C@@H](CCCNC(=N)N)NC(=O)[C@@H](CCCNC(=N)N)NC(=O)[C@@H](CCCNC(=N)N)NC(=O)[C@@H](CCCNC(=N)N)NC(=O)[C@@H](CCCNC(=N)N)NC(=O)CCCCCNC(=S)Nc1ccc2c(c1)C(=O)OC21c2ccc(O)cc2Oc2cc(O)ccc21)C(N)=O` (single isomer, unassigned) [R9], in the data set on Jurkat cells [2], the Vmax was determined as 0.38; the “Km values, fold greater than that found for Tat49-57” value came out at 30 fold; the “rate of cell entry, fold faster than Tat47-59” value is recorded as around 20 fold. Further, the “Km values, fold greater than that found for Tat49-57” value with Jurkat cells [2] (listed as r9) is 100 fold. For the same compound, in the data set on Jurkat cells [1] (4 min at 23° C.), the “cellular uptake of peptoids compared with d-arginine oligomers / other peptoids” value is reported as “comparable to N-btg9” and the “relative order of uptake” value was “N-hxg9 (6 methylene)>N-btg9 (4 methylene)>r9 (3 methylene)>N-arg9 (3 methylene)>N-etg9 (2 methylene)”.

Regarding `N=C(N)NCCC[C@H](NC(=O)[C@H](CCCNC(=N)N)NC(=O)[C@H](CCCNC(=N)N)NC(=O)[C@H](CCC(N)=O)NC(=O)[C@H](CCCNC(=N)N)NC(=O)[C@H](CCCNC(=N)N)NC(=O)[C@H](CCCCN)NC(=O)[C@H](CCCCN)NC(=O)CCCCCNC(=S)Nc1ccc2c(c1)C(=O)OC21c2ccc(O)cc2Oc2cc(O)ccc21)C(N)=O` [Tat50-57] ({FITC-Ahx}-KKRRQRRR-NH2), in the data set with Jurkat cells [1], the “loss of intracellular fluorescence compared to the parent sequence (Tat49-57)” value was 80%.

As to `N=C(N)NCCC[C@@H](NC(=O)[C@@H](CCCNC(=N)N)NC(=O)[C@@H](CCCNC(=N)N)NC(=O)[C@@H](CCC(N)=O)NC(=O)[C@@H](CCCNC(=N)N)NC(=O)[C@@H](CCCNC(=N)N)NC(=O)[C@@H](CCCCN)NC(=O)[C@@H](CCCCN)NC(=O)[C@@H](CCCNC(=N)N)NC(=O)CCCCCNC(=S)Nc1ccc2c(c1)C(=O)OC21c2ccc(O)cc2Oc2cc(O)ccc21)C(N)=O` [d-Tat49-57, Fl-ahx-rkkrrqrrr], the “cellular uptake compared with Tat49-57” value with Jurkat cells [1] is listed as “more effective at entering Jurkat cells then Tat49-57”.

For `N=C(N)NCCC[C@H](NC(=O)[C@H](CCCNC(=N)N)NC(=O)[C@H](CCCNC(=N)N)NC(=O)[C@H](CCC(N)=O)NC(=O)[C@H](CCCNC(=N)N)NC(=O)[C@H](CCCNC(=N)N)NC(=O)[C@H](CCCCN)NC(=O)[C@H](CCCCN)NC(=O)[C@H](CCCNC(=N)N)NC(=O)CCCCCNC(=S)Nc1ccc2c(c1)C(=O)OC21c2ccc(O)cc2Oc2cc(O)ccc21)C(N)=O` [Tat49-57, reference compound], the Vmax with Jurkat cells [2] amounted to 0.38. Besides, the “cellular uptake compared with Tat49-57” value in the data set on Jurkat cells [1] is “between that of R6 and R7”.
